Measured values from PMC6332220, “Synthesis, Characterization and Biological Evaluation of Some Quinoxaline Derivatives: A Promising and Potent New Class of Antitumor and Antimicrobial Agents” (Molecules, 2015).
≈ marks a conversion by molar mass, not a printed value.

Assays:
[1] = system: MCF-7 (breast adenocarcinoma); test: In vitro cytotoxicity, SRB cell growth assay, MCF-7; details: Homo sapiens, MCF7, 48 h, read-out: IC50 (μg/mL) MCF-7
Description: (§1) The in vitro cytotoxic activity of the newly synthesized compounds against human breast cell line (MCF7), non-small cell lung cancer NCIH460, CNS cancer SF-268 and WI 38 (normal fibroblast cells) were evaluated using doxorubicin as the reference drug according to the method reported by Skehan et al..
(§2) The newly synthesized compounds were evaluated in vitro against three human cancer cell lines; which are MCF-7 (breast adenocarcinoma), NCI-H460 (non-small cell lung cancer) and SF-268 (CNS cancer), and WI 38 (normal fibroblast cells) were used in this study. MCF-7 was obtained from the European Collection of Cell Cultures (ECACC, Salisbury, UK) but NCI-H460, SF-268 and WI 38 were kindly provided by the National Cancer Institute (NCI, Cairo, Egypt). They grow as monolayer and routinely maintained RPMI-1640 medium supplemented with 5% heat inactivated fetal bovine serum (FBS), 2 mM glutamine and antibiotics (penicillin 100 U/mL, streptomycin 100 µg/mL), at 37 °C in a humidified atmosphere containing 5% CO2. Exponentially growing cells were obtained by plating 1.5 × 10^5 cells/mL for MCF-7 and SF-268, and 0.75 × 10^4 cells/mL for NCI-H460 followed by 24 h of incubation. The effect of the vehicle solvent (DMSO) on the growth of these cell lines was evaluated in all experiments by exposing untreated control cells to the maximum concentration (0.5%) of DMSO used in each assay.
(§3) The effect of compounds on the in vitro growth of human tumor cell lines were evaluated according to the procedure adopted by the National Cancer Institute ([…]) in the “In vitro Anticancer Drug Discovery Screen” that uses the protein-binding dye sulforhodamine B (SRB) to assess cell growth. In the assay protocol, all cells were incubated at 37 °C under humidified atmosphere containing 5% CO2. Briefly, exponentially cells growing in 96-well plates were then exposed for 48 h to five serial concentrations of each compound, starting from a maximum concentration of 150 μg/mL. Following this exposure period adherent cells were fixed, washed and stained. The bound stain was solubilized and the absorbance was measured at 492 nm in a plate reader (Bio-Tek Instruments Inc., Power wave XS, Winston, NC, USA). For each test compound and cell line, a dose response curve was obtained and the inhibitory concentration of 50% (IC50), corresponding to the concentration of the compounds that inhibited 50% of the net cell growth was calculated as described elsewhere. Doxorubicin was used as a positive control and tested in the same manner.

Staphylococcus aureus = test: MIC by broth dilution, Staphylococcus aureus; type: cell-based; details: Staphylococcus aureus, Gram positive, 0.98-125 µg/mL, read-out: Minimum Inhibitory Concentration (MIC) (µg/mL) Staphylococcus aureus
Description: (§4) In this study, MIC (quantitative method) was used for evaluation of the antimicrobial activity of tested compounds. Screening was evaluated in vitro using the Broth dilution method according to CLSI [45]. All the bacteria were incubated and activated at 30 °C for 24 h inoculation into nutrient broth and the fungi were incubated in malt extract broth for 48 h. The compounds were dissolved in DMSO and then diluted using […] Mueller-Hinton broth. […] In each case triplicate tests were performed and the average was taken as the final reading. The tubes were then inoculated with the test organisms, grown in their suitable broth at 37 °C for 24 h for tested microorganisms (1 × 10^8 CFU/mL for bacteria and 1 × 10^6 CFU/mL of fungi), each 5 mL received 0.1 mL of the above inoculum and incubated at 37 °C for 24 h.

[2] = system: NCI-H460 (non-small cell lung cancer); test: In vitro cytotoxicity, SRB cell growth assay, NCI-H460; details: Homo sapiens, NCI-H460, 48 h, read-out: IC50 (μg/mL) NCI-H460
Description: as §1, §2, §3

Salmonella typhimurium = test: Disk diffusion, Salmonella typhimurium; type: cell-based; details: Gram negative, 8.0 mm disks, 10 μL
Description: (§5) The disk diffusion method was used for determination of the antimicrobial activity using ampicillin, gentamicin and amphotericin B as reference drugs. The results were recorded for each compounds as the average diameter as inhibition zones (IZ) of bacterial or fungal growth around the discs in mm as shown in Table 2.
(§6) Antimicrobial activities were carried out against highly pathogenic strains; three strains of Gram positive bacteria (Bacillus subtilis, Staphylococcus aureus and Streptococcus faecalis), four strains of Gram negative bacteria (Escherichia coli, Neisseria gonorrhoeae, Pseudomonas aeruginosa and Salmonella typhimurium) and three fungi strains (Aspergillus flavus, Aspergillus fumigatus and Candida albicans) isolated from primary agar plates. Antimicrobial activity of the tested samples was determined using a modified Kriby-Bauer disk diffusion method. Briefly, 100 µL of the test bacteria/fungi were grown in 10 mL of fresh media until they reached a count approximately 10^8 cells/mL for bacteria or 10^5 cells/mL for fungi. 100 µL of microbial suspension was spread onto agar plates corresponding to the broth in which they were maintained. The inoculated plates of bacterial strains were incubated at 35–37 °C for 24–48 h, while the inoculated plates of fungal strains such as A. flavus and A. fumigatus were incubated at 25 °C for 48 h and yeast as C. albicans was incubated at 30 °C for 24–48 h.
(§7) The agar disk diffusion (qualitative) method was used in this investigation for determination of the preliminary antibacterial and antifungal activities. The agar used was Mueller-Hinton agar plates that are rigorously tested for composition and pH. Further the depth of the agar in the plate is a factor to be considered in the disk diffusion method.
(§8) Reference drugs: ampicillin was used as a standard antibacterial drug for Gram positive bacteria, gentamicin as a standard antibacterial drug for Gram negative bacteria and amphotericin B as antifungal standard drug.
(§9) Bacterial and fungal strains were spread onto the surface of the agar plates using sterile cotton swabs. For evaluation of antibacterial activities, blank paper disks (Schleicher & Schuell, Alicante, Spain) with a diameter of 8.0 mm were saturated with 10 μL of tested concentration of the stock solutions. Disks were dried and then placed onto inoculated agar plates. The plates of bacterial strains were reincubated at 35–37 °C for 24–48 h, while the plates of fungal strains such as A. flavus and A. fumigatus were reincubated at 25 °C for 48 h and yeast as C. albicans was reincubated at 30 °C for 24–48 h as mentioned above. […] For an accurate analysis, tests were run in triplicate for each strain to avoid any error as described in Table 2.

Pseudomonas aeruginosa [3] = test: Disk diffusion, Pseudomonas aeruginosa; type: cell-based; details: Gram negative, 8.0 mm disks, 10 μL
Description: as §5, §6, §7, §8, §9

SF-268 (CNS cancer) = test: In vitro cytotoxicity, SRB cell growth assay, SF-268; details: Homo sapiens, SF-268, 48 h, read-out: IC50 (μg/mL) SF-268
Description: as §1, §2, §3

Pseudomonas aeruginosa [4] = test: MIC by broth dilution, Pseudomonas aeruginosa; type: cell-based; details: Pseudomonas aeruginosa, Gram negative, 0.98-125 µg/mL, read-out: Minimum Inhibitory Concentration (MIC) (µg/mL) Pseudomonas aeruginosa
Description: as §4

Neisseria gonorrhoeae = test: Disk diffusion, Neisseria gonorrhoeae; type: cell-based; details: Gram negative, 8.0 mm disks, 10 μL
Description: as §5, §6, §7, §8, §9

| SMILES | IC50 [1] [µg/mL] | MIC (Staphylococcus aureus) [µg/mL] | IC50 [2] [µg/mL] | Inhibition Zone Diameter (IZ) (mm) Salmonella typhimurium (Salmonella typhimurium) [mm] | Inhibition Zone Diameter (IZ) (mm) Pseudomonas aeruginosa (Pseudomonas aeruginosa [3]) [mm] | melting point [°C] | IC50 (SF-268 (CNS cancer)) [µg/mL] | MIC (Pseudomonas aeruginosa [4]) [µg/mL] | Inhibition Zone Diameter (IZ) (mm) Neisseria gonorrhoeae (Neisseria gonorrhoeae) |
| --- | --- | --- | --- | --- | --- | --- | --- | --- | --- |
| NNc1nc2cc(Br)ccc2nc1Cl [Compound 3, 6-Bromo-2-chloro-3-hydrazinylquinoxaline] | 36 ± 7.33 (≈ 132 µM) | 3.9 (≈ 14.3 µM) | 26.7 ± 2.18 (≈ 97.8 µM) | 13 | 14 | 201 to 203 | 30.6 ± 2.39 (≈ 112 µM) | 125 (≈ 457 µM) | 14 mm |
| Clc1nc2ccc(Br)cc2n2nnnc12 [Compound 4, 8-Bromo-4-chlorotetrazolo[1,5-a]quinoxaline] | 0.02 ± 0.006 (≈ 0.0703 µM) | 3.9 (≈ 13.7 µM) | 0.01 ± 0.004 (≈ 0.0351 µM) | 17 | 21 | 199 to 201 | 0.06 ± 0.003 (≈ 0.211 µM) | > 125 | 21 mm |
| Brc1ccc2nc(N3CCCCC3)c3nnnn3c2c1 [Compound 5a, 8-Bromo-4-(piperidin-1-yl)tetrazolo[1,5-a]quinoxaline] | 0.01 ± 0.001 (≈ 0.03 µM) | 62.5 (≈ 188 µM) | 0.02 ± 0.006 (≈ 0.06 µM) | 14 | 11 | 122 to 123 | 0.02 ± 0.008 (≈ 0.06 µM) | 125 (≈ 375 µM) | R (R (IZ = 0 mm)) |
| Brc1ccc2nc(N3CCOCC3)c3nnnn3c2c1 [Compound 5b, 8-Bromo-4-(morpholin-4-yl)tetrazolo[1,5-a]quinoxaline] | 0.02 ± 0.002 (≈ 0.0597 µM) | 1.95 (≈ 5.82 µM) | 0.01 ± 0.002 (≈ 0.0298 µM) | 13 | 10 | 144 to 146 | 0.06 ± 0.008 (≈ 0.179 µM) | > 125 | R (R (IZ = 0 mm)) |
| NNc1nc2ccc(Br)cc2nc1NN [Compound 9, 6-Bromo-2,3-dihydrazinylquinoxaline] | 37.1 ± 7.34 (≈ 138 µM) | 1.95 (≈ 7.25 µM) | 16.4 ± 2.32 (≈ 60.8 µM) | 17 | 31 | – | 38.9 ± 2.63 (≈ 145 µM) | 125 (≈ 465 µM) | 28 mm |
| Brc1ccc2c(c1)n1nnnc1c1nnnn21 [Compound 11, 9-Bromoditetrazolo[1,5-a:5′,1′-c]quinoxaline] | 1.18 ± 1.03 (≈ 4.05 µM) | 7.81 (≈ 26.8 µM) | 2.83 ± 0.53 (≈ 9.72 µM) | 18 | 14 | – | 2.86 ± 4.92 (≈ 9.83 µM) | 125 (≈ 429 µM) | R (R (IZ = 0 mm)) |
| Cc1cc(C)n(-c2nc3cc(Br)ccc3nc2NN)n1 [Compound 14, 6-Bromo-3-(3,5-dimethyl-1H-pyrazol-1-yl)-2-hydrazinyl quinoxaline] | 30.3 ± 3.86 (≈ 91 µM) | 1.95 (≈ 5.85 µM) | 38.3 ± 2.35 (≈ 115 µM) | 10 | 12 | 164 to 166 | 42.1 ± 5.58 (≈ 126 µM) | 125 (≈ 375 µM) | 12 mm |
| NC1=NN(c2nc3ccc(Br)cc3nc2N2N=C(N)CC2=O)C(=O)C1 [Compound 16, 6-Bromo-2,3-bis(3-amino-1H-pyrazol-5(4H)-one)quinoxaline] | 12.8 ± 1.46 (≈ 31.8 µM) | 1.95 (≈ 4.84 µM) | 22.9 ± 0.46 (≈ 56.9 µM) | 10 | 11 | 232 to 233 | 49.9 ± 8.64 (≈ 124 µM) | 125 (≈ 310 µM) | 11 mm |
